Here are results for 27 molecules from ChEMBL document CHEMBL5291721, “A preclinical secondary pharmacology resource illuminates target-adverse drug reaction associations of marketed drugs” (Nat Commun, 2023).

SMILES strings stand for the structures. Where only a bound is given, the exact number is not on record here.

Experiment [1] has as its target Gamma-aminobutyric acid receptor subunit alpha-1/alpha-2/beta-2/gamma-2 (Homo sapiens, UniProt P14867+P18507+P47869+P47870). In kind it is functional, cell-based.
Experiment [2] has as its target Kappa-type opioid receptor (Homo sapiens, UniProt P41145).
Experiment [3] concerns the target Sodium-dependent dopamine transporter (Homo sapiens, UniProt Q01959).
Another experiment addresses T1, Progesterone receptor (Homo sapiens, UniProt P06401).
T1 sequence (P06401 whole entry): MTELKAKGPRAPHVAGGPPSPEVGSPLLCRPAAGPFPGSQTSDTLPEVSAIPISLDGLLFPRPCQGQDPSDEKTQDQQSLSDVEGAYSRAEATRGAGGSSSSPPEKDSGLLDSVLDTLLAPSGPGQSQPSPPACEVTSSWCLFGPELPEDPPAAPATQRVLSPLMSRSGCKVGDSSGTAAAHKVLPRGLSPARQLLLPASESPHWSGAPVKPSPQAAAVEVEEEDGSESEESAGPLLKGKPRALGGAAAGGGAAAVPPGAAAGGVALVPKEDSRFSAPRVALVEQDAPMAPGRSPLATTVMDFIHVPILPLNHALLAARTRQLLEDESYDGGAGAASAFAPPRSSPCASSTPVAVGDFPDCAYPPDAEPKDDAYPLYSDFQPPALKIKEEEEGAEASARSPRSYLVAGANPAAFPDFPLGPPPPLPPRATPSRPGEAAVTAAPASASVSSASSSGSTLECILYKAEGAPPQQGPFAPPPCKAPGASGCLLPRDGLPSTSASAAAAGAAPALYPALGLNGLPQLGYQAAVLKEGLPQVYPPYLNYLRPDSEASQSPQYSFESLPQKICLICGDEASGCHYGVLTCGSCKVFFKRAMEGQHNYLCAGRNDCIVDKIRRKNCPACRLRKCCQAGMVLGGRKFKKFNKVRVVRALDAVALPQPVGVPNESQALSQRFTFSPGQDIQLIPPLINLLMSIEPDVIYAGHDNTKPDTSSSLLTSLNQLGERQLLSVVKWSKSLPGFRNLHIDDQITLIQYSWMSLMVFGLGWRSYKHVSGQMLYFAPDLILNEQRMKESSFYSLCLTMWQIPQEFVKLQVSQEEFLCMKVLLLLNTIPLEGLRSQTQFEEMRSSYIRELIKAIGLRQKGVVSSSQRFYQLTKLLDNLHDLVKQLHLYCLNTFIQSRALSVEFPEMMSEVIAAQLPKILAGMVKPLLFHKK

Experiment [4] deals with T2, Muscarinic acetylcholine receptor M1 (Homo sapiens, UniProt P11229).
T2 sequence (P11229 whole entry): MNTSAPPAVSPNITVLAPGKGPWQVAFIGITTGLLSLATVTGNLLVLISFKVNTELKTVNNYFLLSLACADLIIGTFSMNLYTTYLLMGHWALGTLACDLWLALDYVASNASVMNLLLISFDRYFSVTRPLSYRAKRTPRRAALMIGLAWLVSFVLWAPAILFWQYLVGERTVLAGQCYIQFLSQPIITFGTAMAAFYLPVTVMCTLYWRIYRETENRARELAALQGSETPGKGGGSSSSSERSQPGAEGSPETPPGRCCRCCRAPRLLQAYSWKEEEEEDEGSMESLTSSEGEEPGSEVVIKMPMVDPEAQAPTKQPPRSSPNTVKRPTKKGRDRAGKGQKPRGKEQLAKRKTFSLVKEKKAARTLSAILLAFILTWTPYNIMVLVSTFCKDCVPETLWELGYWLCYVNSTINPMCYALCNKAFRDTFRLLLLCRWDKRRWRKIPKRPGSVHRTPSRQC
In kind it is functional, cell-based.

Experiment [5] has as its target Neurotensin receptor type 1 (Homo sapiens, UniProt P30989).
The target in the next experiment is T3, Glucocorticoid receptor (Homo sapiens, UniProt P04150).
T3 sequence (P04150 whole entry): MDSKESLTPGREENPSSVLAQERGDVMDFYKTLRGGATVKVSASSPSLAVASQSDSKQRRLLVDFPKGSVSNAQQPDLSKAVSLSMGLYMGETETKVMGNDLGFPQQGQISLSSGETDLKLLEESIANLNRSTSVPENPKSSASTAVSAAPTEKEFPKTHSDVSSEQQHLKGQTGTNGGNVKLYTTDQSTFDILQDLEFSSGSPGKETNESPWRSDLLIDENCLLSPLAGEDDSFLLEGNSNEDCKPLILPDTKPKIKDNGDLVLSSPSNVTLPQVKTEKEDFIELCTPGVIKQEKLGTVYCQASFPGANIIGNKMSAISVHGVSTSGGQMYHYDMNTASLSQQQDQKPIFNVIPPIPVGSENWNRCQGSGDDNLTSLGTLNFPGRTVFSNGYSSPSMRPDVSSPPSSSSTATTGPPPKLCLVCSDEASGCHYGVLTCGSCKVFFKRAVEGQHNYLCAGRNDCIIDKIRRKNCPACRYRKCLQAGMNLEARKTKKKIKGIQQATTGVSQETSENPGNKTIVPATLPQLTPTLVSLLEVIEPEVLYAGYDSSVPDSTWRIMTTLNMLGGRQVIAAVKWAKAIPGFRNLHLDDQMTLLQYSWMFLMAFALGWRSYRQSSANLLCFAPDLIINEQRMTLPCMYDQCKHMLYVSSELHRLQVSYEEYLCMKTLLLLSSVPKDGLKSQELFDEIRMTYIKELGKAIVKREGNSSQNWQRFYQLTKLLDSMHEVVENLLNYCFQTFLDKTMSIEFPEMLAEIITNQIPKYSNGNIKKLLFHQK

The next experiment addresses T4, D(4) dopamine receptor (Homo sapiens, UniProt P21917).
T4 sequence (P21917 whole entry): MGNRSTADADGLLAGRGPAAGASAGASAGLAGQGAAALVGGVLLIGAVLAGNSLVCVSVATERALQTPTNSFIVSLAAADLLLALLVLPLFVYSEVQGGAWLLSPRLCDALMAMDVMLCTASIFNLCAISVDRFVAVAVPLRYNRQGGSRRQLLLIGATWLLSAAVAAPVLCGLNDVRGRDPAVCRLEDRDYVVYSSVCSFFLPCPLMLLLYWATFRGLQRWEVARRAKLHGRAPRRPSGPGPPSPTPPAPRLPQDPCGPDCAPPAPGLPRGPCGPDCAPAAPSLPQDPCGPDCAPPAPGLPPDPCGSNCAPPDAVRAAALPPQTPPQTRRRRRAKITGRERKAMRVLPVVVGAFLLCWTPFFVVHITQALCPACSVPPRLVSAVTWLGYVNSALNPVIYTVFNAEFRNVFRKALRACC
Further: assay procedure not described here.

Sodium-dependent dopamine transporter, sequence (Q01959 whole entry): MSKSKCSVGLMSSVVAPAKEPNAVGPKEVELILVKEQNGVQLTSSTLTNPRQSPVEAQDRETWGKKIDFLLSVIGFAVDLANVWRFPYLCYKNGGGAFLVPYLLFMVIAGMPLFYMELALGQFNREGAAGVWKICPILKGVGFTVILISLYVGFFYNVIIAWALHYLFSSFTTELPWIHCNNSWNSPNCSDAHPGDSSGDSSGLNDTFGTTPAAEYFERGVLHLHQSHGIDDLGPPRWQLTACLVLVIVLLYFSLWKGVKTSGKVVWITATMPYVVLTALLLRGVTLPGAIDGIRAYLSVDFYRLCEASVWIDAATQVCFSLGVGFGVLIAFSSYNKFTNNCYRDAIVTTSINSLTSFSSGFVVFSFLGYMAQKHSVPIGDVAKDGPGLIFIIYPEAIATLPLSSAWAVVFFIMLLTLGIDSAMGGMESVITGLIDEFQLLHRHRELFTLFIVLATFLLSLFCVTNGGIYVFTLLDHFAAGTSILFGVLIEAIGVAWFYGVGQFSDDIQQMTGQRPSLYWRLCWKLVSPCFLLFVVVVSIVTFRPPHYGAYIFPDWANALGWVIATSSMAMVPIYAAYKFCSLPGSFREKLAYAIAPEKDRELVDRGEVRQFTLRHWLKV
Gamma-aminobutyric acid receptor subunit alpha-1/alpha-2/beta-2/gamma-2, sequence (P14867 whole entry): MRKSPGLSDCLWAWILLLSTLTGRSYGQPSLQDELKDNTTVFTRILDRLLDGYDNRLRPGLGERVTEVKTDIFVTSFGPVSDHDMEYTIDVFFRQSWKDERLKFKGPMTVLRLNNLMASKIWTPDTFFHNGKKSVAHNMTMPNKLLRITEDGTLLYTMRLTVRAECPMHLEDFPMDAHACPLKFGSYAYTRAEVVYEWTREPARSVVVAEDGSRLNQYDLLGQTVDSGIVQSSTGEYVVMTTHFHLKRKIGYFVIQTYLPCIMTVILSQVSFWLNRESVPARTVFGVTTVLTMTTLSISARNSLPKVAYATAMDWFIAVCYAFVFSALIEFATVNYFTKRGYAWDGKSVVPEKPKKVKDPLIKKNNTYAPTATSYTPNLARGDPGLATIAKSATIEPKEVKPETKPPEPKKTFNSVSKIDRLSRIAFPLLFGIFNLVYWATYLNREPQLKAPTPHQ
Gamma-aminobutyric acid receptor subunit alpha-1/alpha-2/beta-2/gamma-2, sequence (P47870 whole entry): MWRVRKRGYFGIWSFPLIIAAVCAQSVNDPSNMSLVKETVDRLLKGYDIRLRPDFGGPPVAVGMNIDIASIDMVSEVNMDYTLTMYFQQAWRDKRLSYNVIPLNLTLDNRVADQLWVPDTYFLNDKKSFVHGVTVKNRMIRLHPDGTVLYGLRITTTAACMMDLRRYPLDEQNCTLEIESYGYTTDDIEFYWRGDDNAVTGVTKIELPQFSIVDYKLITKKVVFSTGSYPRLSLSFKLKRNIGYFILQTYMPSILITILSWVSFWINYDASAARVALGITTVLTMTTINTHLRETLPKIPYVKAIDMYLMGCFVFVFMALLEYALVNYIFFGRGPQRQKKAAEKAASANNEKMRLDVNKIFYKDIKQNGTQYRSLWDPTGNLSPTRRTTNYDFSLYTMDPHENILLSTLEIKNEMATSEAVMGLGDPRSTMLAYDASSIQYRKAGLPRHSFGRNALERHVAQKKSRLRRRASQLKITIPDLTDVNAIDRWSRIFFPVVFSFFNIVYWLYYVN
Gamma-aminobutyric acid receptor subunit alpha-1/alpha-2/beta-2/gamma-2, sequence (P18507 whole entry): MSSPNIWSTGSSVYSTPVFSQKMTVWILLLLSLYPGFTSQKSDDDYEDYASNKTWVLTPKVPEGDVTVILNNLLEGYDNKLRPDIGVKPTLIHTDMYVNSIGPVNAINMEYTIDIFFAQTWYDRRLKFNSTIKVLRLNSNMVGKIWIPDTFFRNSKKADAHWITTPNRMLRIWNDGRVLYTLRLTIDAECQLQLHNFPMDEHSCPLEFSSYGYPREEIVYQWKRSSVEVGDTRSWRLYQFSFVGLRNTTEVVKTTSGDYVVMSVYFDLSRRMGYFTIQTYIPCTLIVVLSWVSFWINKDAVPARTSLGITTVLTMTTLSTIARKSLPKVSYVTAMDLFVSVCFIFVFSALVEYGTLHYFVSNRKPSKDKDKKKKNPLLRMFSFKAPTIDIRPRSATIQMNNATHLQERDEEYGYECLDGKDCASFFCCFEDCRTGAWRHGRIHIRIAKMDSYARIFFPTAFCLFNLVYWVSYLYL
Gamma-aminobutyric acid receptor subunit alpha-1/alpha-2/beta-2/gamma-2, sequence (P47869 whole entry): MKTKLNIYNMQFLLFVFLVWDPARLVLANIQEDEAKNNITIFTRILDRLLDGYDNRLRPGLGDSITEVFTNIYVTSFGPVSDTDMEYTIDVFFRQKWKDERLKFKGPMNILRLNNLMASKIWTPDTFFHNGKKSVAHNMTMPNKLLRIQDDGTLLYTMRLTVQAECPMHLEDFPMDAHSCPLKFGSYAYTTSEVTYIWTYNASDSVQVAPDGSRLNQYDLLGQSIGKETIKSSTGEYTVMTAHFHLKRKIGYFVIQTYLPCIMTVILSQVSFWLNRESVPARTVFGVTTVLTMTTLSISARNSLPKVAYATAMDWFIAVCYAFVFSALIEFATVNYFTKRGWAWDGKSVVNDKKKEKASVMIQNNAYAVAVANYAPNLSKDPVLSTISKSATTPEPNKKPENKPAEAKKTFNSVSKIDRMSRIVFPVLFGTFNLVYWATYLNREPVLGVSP
Kappa-type opioid receptor, sequence (P41145 whole entry): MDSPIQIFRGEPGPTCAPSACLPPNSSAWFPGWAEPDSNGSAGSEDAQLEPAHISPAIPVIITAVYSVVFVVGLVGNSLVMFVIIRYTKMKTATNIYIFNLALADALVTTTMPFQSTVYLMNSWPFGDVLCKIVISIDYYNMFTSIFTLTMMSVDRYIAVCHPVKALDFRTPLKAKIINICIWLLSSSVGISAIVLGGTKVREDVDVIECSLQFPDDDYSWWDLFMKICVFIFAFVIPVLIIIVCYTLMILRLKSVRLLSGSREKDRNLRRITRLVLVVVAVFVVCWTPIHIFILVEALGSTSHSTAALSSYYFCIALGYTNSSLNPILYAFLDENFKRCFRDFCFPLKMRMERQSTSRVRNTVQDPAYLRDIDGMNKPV
Neurotensin receptor type 1, sequence (P30989 whole entry): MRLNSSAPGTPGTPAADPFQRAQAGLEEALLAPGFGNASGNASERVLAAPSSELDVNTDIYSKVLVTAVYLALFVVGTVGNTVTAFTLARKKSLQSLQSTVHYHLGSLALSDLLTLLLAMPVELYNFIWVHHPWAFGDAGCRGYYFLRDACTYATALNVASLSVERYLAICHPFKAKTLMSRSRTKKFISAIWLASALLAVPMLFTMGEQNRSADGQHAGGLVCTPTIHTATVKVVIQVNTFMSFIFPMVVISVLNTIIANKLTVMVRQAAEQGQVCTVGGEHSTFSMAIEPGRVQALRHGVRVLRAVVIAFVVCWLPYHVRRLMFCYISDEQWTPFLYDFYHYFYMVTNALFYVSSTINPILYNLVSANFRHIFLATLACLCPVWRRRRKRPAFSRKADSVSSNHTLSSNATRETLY

In the case of `c1ccc([C@H]2CN3CCSC3=N2)cc1` [LEVAMISOLE], the AC50 in experiment [1] and in experiment [2] was above 30 µM each time.

As to `O=C(OCC(O)CO)c1ccccc1Nc1ccnc2cc(Cl)ccc12` (centres undefined) [GLAFENINE], the AC50 is above 30 µM in experiment [3], above 30 µM at Progesterone receptor, 17 µM in experiment [1] and above 30 µM in experiment [4].

Take `CO[C@H]1C[C@@H]2CC[C@@H](C)[C@@](O)(O2)C(=O)C(=O)N2CCCC[C@H]2C(=O)O[C@H]([C@H](C)C[C@@H]2CC[C@@H](O)[C@H](OC)C2)CC(=O)[C@H](C)/C=C(\C)[C@@H](O)[C@@H](OC)C(=O)[C@H](C)C[C@H](C)/C=C/C=C/C=C/1C` [SIROLIMUS]: the AC50 in experiment [3] was above 30 µM; on Progesterone receptor, above 30 µM; in experiment [5] it was above 30 µM; in experiment [2] it was above 10 µM.

For the molecule `CC[C@H]1[C@@H](O)[C@@H]2[C@H](CC[C@]3(C)[C@@H]([C@H](C)CCC(=O)O)CC[C@@H]23)[C@@]2(C)CC[C@@H](O)C[C@@H]12` [OBETICHOLIC ACID], the AC50 (in experiment [3]; on Progesterone receptor; on Glucocorticoid receptor; in experiment [4]; in experiment [2]) was above 30 µM throughout.

Consider `CNC(=O)c1ccccc1Sc1ccc2c(/C=C/c3ccccn3)n[nH]c2c1` [AXITINIB], for which the half-maximal activity concentration (AC50) in experiment [1] is above 30 µM.

With `CCCN1C[C@H](CSC)C[C@@H]2c3cccc4[nH]cc(c34)C[C@H]21` [PERGOLIDE], the AC50 in experiment [5] is above 30 µM; at Glucocorticoid receptor, above 30 µM; in experiment [1], above 30 µM; in experiment [2] it was 12.9 µM.

Take `Nc1nc(NC2CC2)c2ncn([C@H]3C=C[C@@H](CO)C3)c2n1` [ABACAVIR]: the concentration at half-maximal activity (AC50) (at Glucocorticoid receptor; in experiment [1]; in experiment [2]) was above 30 µM in each case.

`CNC1Cc2ccccc2N(C)c2ccccc21` (centres undefined) [METAPRAMINE] showed an AC50 in experiment [1] above 30 µM.

`CCC(C)n1ncn(-c2ccc(N3CCN(c4ccc(OCC5COC(Cn6cncn6)(c6ccc(Cl)cc6Cl)O5)cc4)CC3)cc2)c1=O` (centres undefined) [ITRACONAZOLE]: the figures for the AC50 (on D(4) dopamine receptor; in experiment [5]; in experiment [2]) were above 10 µM, above 30 µM and above 30 µM, respectively.

Regarding `O=C(Cc1ccc(-c2ccccc2)cc1)Nc1ccccn1` [DIFENPIRAMIDE], the concentration at half-maximal activity (AC50) in experiment [3] was 0.58 µM; at Progesterone receptor, above 30 µM; in experiment [1], above 30 µM; in experiment [4], above 30 µM; in experiment [2], above 30 µM.

`CN(C)CCC=C1c2ccccc2C(C)(C)c2ccccc21` returned a concentration at half-maximal activity (AC50) in experiment [1] above 30 µM.

Consider `CC(C)C[C@H]1C(=O)N2CCC[C@H]2[C@]2(O)O[C@](NC(=O)[C@@H]3C=C4c5cccc6[nH]c(Br)c(c56)C[C@H]4N(C)C3)(C(C)C)C(=O)N12` [BROMOCRIPTINE], for which the half-maximal activity concentration (AC50) was above 30 µM in experiment [3]; above 30 µM at Progesterone receptor; above 30 µM in experiment [5]; above 30 µM on Glucocorticoid receptor; above 30 µM in experiment [1]; 12.8 µM in experiment [2].

With `C[C@@H](O)[C@H]1C(=O)N2C(C(=O)O)=C(S[C@@H]3CN[C@H](C(=O)N(C)C)C3)[C@H](C)[C@H]12` [MEROPENEM], the values for the AC50 (on Glucocorticoid receptor; in experiment [1]; in experiment [2]) were above 10 µM, above 300 µM and above 10 µM, respectively.

For `COCCCN1CCC(NC(=O)c2cc(Cl)c(N)c3c2OCC3)CC1` [PRUCALOPRIDE], the AC50 (in experiment [3]; on Progesterone receptor; in experiment [1]; in experiment [4]) was above 30 µM in each case.

With `C[C@]12CCC(=O)C=C1CC[C@@H]1[C@@H]2[C@@H](O)C[C@@]2(C)[C@H]1CC[C@]2(O)C(=O)CO` [HYDROCORTISONE], the AC50 at D(4) dopamine receptor is above 10 µM; in experiment [5] it was above 30 µM; in experiment [2], above 10 µM.

As to `COc1ccc(CC(C)(C)NC[C@H](O)c2cc(O)cc3c2OCC(=O)N3)cc1` [OLODATEROL], the AC50 in experiment [1] is above 30 µM.

Turning to `Clc1ccc2nsnc2c1NC1=NCCN1` [TIZANIDINE], the concentration at half-maximal activity (AC50) in experiment [5] is above 30 µM; at Glucocorticoid receptor, above 30 µM; in experiment [2], above 10 µM.

`CC(=O)Nc1ccc(O)cc1` [ACETAMINOPHEN]: the AC50 (in experiment [3]; at Progesterone receptor; in experiment [1]) was above 30 µM in each case.

Turning to `C[C@H]1CNCCc2ccc(Cl)cc21` [LORCASERIN], the half-maximal activity concentration (AC50) in experiment [1] is above 30 µM.

Take `N[C@@H]1[C@H]2CN(c3nc4c(cc3F)c(=O)c(C(=O)O)cn4-c3ccc(F)cc3F)C[C@@H]12` [TROVAFLOXACIN]: the half-maximal activity concentration (AC50) in experiment [1] is above 30 µM.

Take `C=CCc1ccccc1OCC(O)CNC(C)C` (centres undefined) [ALPRENOLOL]: the AC50 in experiment [3] was above 0.3 µM; at Progesterone receptor, above 0.3 µM; in experiment [4] it was above 0.3 µM; in experiment [2], above 30 µM.

Take `N[C@@H](C(=O)N[C@@H]1C(=O)N2C(C(=O)O)=C(Cl)CC[C@H]12)c1ccccc1` [LORACARBEF ANHYDROUS]: the AC50 (in experiment [3]; on Progesterone receptor; in experiment [4]) was above 30 µM each time.

For the molecule `CN(C)[C@@H](c1cccc(O)c1)[C@H]1CCCC[C@H]1O` [CIRAMADOL], the figures for the concentration at half-maximal activity (AC50) (in experiment [3]; on Progesterone receptor; in experiment [4]) were 29.6 µM, above 30 µM and above 30 µM, respectively.

Take `c1cnc(N2CCN(Cc3ccc4c(c3)OCO4)CC2)nc1` [PIRIBEDIL]: in experiment [1], the AC50 was above 30 µM.

In the case of `COC(c1ccccc1)(c1ccccc1)[C@H](Oc1nc(C)cc(C)n1)C(=O)O` [AMBRISENTAN], the AC50 (in experiment [3]; at Progesterone receptor; in experiment [4]) was above 30 µM in each case.

Take `CC1(C)NC(=O)N(c2ccc([N+](=O)[O-])c(C(F)(F)F)c2)C1=O` [NILUTAMIDE]: the AC50 is above 30 µM in experiment [3], 12.7 µM on Progesterone receptor, above 30 µM in experiment [4] and above 30 µM in experiment [2].

Turning to `CCOC(=O)[C@H](CCc1ccccc1)N[C@@H](C)C(=O)N1[C@H](C(=O)O)C[C@H]2CCCC[C@@H]21` [TRANDOLAPRIL], the AC50 (in experiment [3]; on Progesterone receptor; in experiment [4]) was above 30 µM in each case.
